EC50 data for 28 molecules are collected here from ChEMBL document CHEMBL1134927, “A series of C-terminal amino alcohol dipeptide A beta inhibitors” (Bioorg Med Chem Lett, 2002).

The structures appear in SMILES notation.

The assay deals with HEK293. Description: Effective dose required to inhibit beta-amyloid formation in a human kidney cell line (HEK 293). The format is functional. Conditions: read-out: ED50 (the source's name).
`C[C@H](NC(=O)Cc1cc(F)cc(F)c1)C(=O)N[C@@H](c1ccccc1)[C@H](O)c1ccccc1`: the EC50 is 3.5 µM.

For `C#CC[C@@H](CO)NC(=O)[C@H](C)NC(=O)[C@@H](O)c1cc(F)cc(F)c1`, the EC50 stood at 2.3 µM.

Take `C[C@H](NC(=O)[C@@H](O)c1cc(F)cc(F)c1)C(=O)N[C@H](CO)CC1CCCCC1`: the EC50 stood at 0.2 µM.

In the case of `C[C@H](NC(=O)Cc1cc(F)cc(F)c1)C(=O)N[C@H](c1ccccc1)[C@@H](O)c1ccccc1`, the EC50 was > 10 µM.

`CSCC[C@@H](CO)NC(=O)[C@H](C)NC(=O)[C@@H](O)c1cc(F)cc(F)c1`: the EC50 amounted to 0.96 µM.

On to `C[C@H](NC(=O)[C@@H](O)c1cc(F)cc(F)c1)C(=O)N[C@H](CO)CCCc1ccccc1`, for which the EC50 was found to be 0.13 µM.

Regarding `C[C@H](NC(=O)Cc1cc(F)cc(F)c1)C(=O)N[C@H](C)[C@@H](O)c1ccccc1`, the EC50 was > 10 µM.

On to `CCCC[C@H](CO)NC(=O)[C@H](C)NC(=O)[C@@H](O)c1cc(F)cc(F)c1`, for which the EC50 is 24.5 µM.

On to `CSCC[C@@H](CO)NC(=O)[C@H](C)NC(=O)Cc1cc(F)cc(F)c1`, for which the EC50 amounted to 0.49 µM.

In the case of `C[C@H](NC(=O)Cc1cc(F)cc(F)c1)C(=O)N[C@@H](C)[C@H](O)c1ccccc1`, the EC50 was > 10 µM.

On to `COC(=O)C[C@@H](O)[C@H](Cc1ccccc1)NC(=O)[C@H](C)NC(=O)Cc1cc(F)cc(F)c1`, for which the EC50 was > 10 µM.

Regarding `CCCC[C@H](NC(=O)[C@H](C)NC(=O)Cc1cc(F)cc(F)c1)C(=O)OC`, the EC50 worked out at 0.015 µM.

Turning to `CCCC[C@H](CO)NC(=O)[C@H](C)NC(=O)Cc1cc(F)cc(F)c1`, the EC50 was > 29 µM.

Turning to `C[C@H](NC(=O)[C@@H](O)c1cc(F)cc(F)c1)C(=O)N[C@H](CO)CCc1ccccc1`, the EC50 worked out at 0.27 µM.

For `C[C@H](NC(=O)Cc1cc(F)cc(F)c1)C(=O)N[C@H](CO)c1ccccc1`, the EC50 amounted to 0.18 µM.

For the molecule `C[C@H](NC(=O)Cc1cc(F)cc(F)c1)C(=O)N[C@H]1c2ccccc2C[C@H]1O`, the EC50 turned out to be 0.63 µM.

For `C[C@H](NC(=O)Cc1cc(F)cc(F)c1)C(=O)NC1c2ccccc2C[C@@H]1O` (single isomer, unassigned), the EC50 was > 10 µM.

As to `C[C@H](NC(=O)Cc1cc(F)cc(F)c1)C(=O)N[C@H](CO)CC1CCCCC1`, the EC50 came to 0.8 µM.

Take `C#CC[C@@H](CO)NC(=O)[C@H](C)NC(=O)Cc1cc(F)cc(F)c1`: the EC50 was 10 µM.

As to `C[C@H](NC(=O)Cc1cc(F)cc(F)c1)C(=O)N[C@@H](CO)c1ccccc1`, the EC50 was > 10 µM.

For the molecule `CCCC[C@@H](CO)NC(=O)[C@H](C)NC(=O)Cc1cc(F)cc(F)c1`, the EC50 turned out to be 0.46 µM.

For `C[C@H](NC(=O)Cc1cc(F)cc(F)c1)C(=O)N(C)[C@H](C)[C@H](O)c1ccccc1`, the EC50 was > 10 µM.

For the molecule `CCCC[C@@H](CO)NC(=O)[C@H](C)NC(=O)[C@@H](O)c1cc(F)cc(F)c1`, the EC50 was 0.6 µM.

`C[C@H](NC(=O)Cc1cc(F)cc(F)c1)C(=O)N(C)[C@@H](C)[C@@H](O)c1ccccc1`: the EC50 was > 10 µM.

With `CCCC[C@H](NC(=O)[C@@H](C)NC(=O)Cc1cc(F)cc(F)c1)C(=O)OC`, the EC50 came to 9.4 µM.

As to `C[C@H](NC(=O)Cc1cc(F)cc(F)c1)C(=O)N[C@H](CO)Cc1ccccc1`, the EC50 came to 2.7 µM.

Consider `C[C@H](NC(=O)Cc1cc(F)cc(F)c1)C(=O)NCCO`, for which the EC50 is > 10 µM.

For `C[C@H](NC(=O)Cc1cc(F)cc(F)c1)C(=O)N[C@H](CO)CCCc1ccccc1`, the EC50 was 0.87 µM.
